Reference: paper PMC8998675 (Molecular Pharmacology, 2021)

Tests used:
β2AR [1] = molecular target: T1, β2AR (Homo sapiens, UniProt P07550); assay: 35S-GTPγS binding to heterotrimeric Gs (SPA), β2AR in HDL; conditions: epinephrine (10 µM) stimulation; cmpd-6 or A9 20 µM, Nb6B9 1 µM, ICI-118551 10 µM
Experimental: After incubations, the β2AR-Gs complexes were captured on YSi beads.

β2AR [2] = molecular target: T1, β2AR; assay: 125I-CYP competition radioligand binding at β2AR in HDL particles (nanodiscs)

T1 sequence (P07550 whole entry): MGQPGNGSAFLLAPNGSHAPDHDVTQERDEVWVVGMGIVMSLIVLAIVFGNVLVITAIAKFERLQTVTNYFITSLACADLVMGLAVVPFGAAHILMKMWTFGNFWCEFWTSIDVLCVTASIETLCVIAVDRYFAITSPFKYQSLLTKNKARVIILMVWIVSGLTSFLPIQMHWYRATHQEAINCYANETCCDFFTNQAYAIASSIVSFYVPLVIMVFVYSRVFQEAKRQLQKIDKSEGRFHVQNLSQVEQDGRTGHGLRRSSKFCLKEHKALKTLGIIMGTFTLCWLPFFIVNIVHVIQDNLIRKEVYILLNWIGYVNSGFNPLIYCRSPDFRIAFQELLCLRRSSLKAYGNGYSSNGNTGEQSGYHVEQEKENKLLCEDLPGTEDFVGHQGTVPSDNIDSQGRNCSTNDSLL

Which “35S-GTPγS binding to Gs / activation of Gs” value (β2AR [1]) does the source give for `CC(C)N(C)S(=O)(=O)c1ccc(Sc2ccc(C(N)=O)cc2)c(C(=O)N[C@@H](CC(N)=O)Cc2ccc(C(C)(C)C)cc2)c1` [A9] here?
The value was “markedly blocks the agonist-stimulated activation of Gs”.

What about the Kd (β2AR [2]; LogKT, dissociation constant of PAM, carvedilol-bound β2AR) of the same compound?
Its Kd is 2.95 µM.

And the “PAM activity with agonists including epinephrine (affinity shift)” value (β2AR [2]; analog 20 µM, Fig. 5A(i), 5C)?
Its value is “absolutely no PAM activity”.

What about the “cooperativity with carvedilol (affinity shift)” value (β2AR [2]; analog 20 µM, Fig. 5A(ii)) of the same compound?
Its value is “retains its positive cooperativity with carvedilol”.

What about the Kd (β2AR [2]; binding affinity of modulator for the receptor in the presence of carvedilol, from shifts of carvedilol LogIC50 versus modulator dose) of the same compound?
Its Kd is roughly 2.9 µM.
